The target of one assay is T1, F508del/F508del CFTR (Homo sapiens, UniProt P13569, DEL508-508).
T1 construct: cells isolated from CF patients with the homozygous mutation; endogenous in cells; host or cells: primary human bronchial epithelial (hBE) cells from CF patients homozygous for F508del
The experiment in a line: Trans-Epithelial Current Clamp (TECC) assay using primary human bronchial epithelial cells. To be noted: for Emax (% Dual): maximum percent activity relative to positive control (co-corrector 0.15 μM + potentiator 0.45 μM = 100%), primary hBE cells F508del/F508del; for EC50: primary hBE cells homozygous F508del/F508del, test C2 corrector with co-corrector and potentiator, 18-24 hours at 37° C., equivalent CFTR current (IEQ)/AUC. The format is cell-based. The text has this:
A cell-based assay was developed using the primary human bronchial epithelial cells (hBE cells) with F508del/F508del CFTR and other mutations.
Primary human bronchial epithelial (hBE) cells from CFTR patients with homozygous F508del/F508del mutation were expanded from 1×10^6 to 250×10^6 cells (Neuberger, T et al., 2011, Methods Mol Biol 741:39-54). For this purpose, cells isolated from CF patients with the homozygous mutation, procured from the CF center tissue procurement and cell culture core at the Marsico Lung Institute at UNC (Randell), the Cystic Fibrosis translational research center at McGill University (University), and Rosalind Franklin University Medical School (RFUMS) were seeded onto 24 well Corning (Cat #3378) filter plates that were coated with 3T3 conditioned media and grown at an air-liquid interface for 35 days using an Ultroser® G supplemented differentiation media. All the primary human bronchial epithelial cells were collected in accordance with institutional review board approval protocols. Apical surface mucus was removed 72 hours before the experiment by incubating the apical surface of the cells for 30 minutes with 3 mM dithiothreitol (DTT) prepared in Dulbecco's phosphate buffered saline (DPBS) with Ca^2+ and Mg^2+. This was followed with aspiration of the mucus from the apical surface along with DPBS. The apical surface was re-washed with phosphate buffered saline (PBS) incubated for 30 minutes followed with aspiration. These hBE cells were then incubated with the desired concentrations of the test C2 corrector compounds along with co-corrector, 4-[(2R,4R)-4-({[1-(2,2-difluoro-1,3-benzodioxol-5-yl)cyclopropyl]carbonyl}amino)-7-(difluoromethoxy)-3,4-dihydro-2H-chromen-2-yl]benzoic acid and potentiator, (5-{3-amino-5-[4-(trifluoromethoxy)benzene-1-sulfonyl]pyridin-2-yl}-1,3,4-oxadiazol-2-yl)methanol, for 18-24 hours at 37° C., 5% CO2. The desired concentrations of the correctors and potentiator compounds were prepared from the 10 mM stocks in differentiation media and were always applied on the basolateral side of the epithelial cells. We also used an assay format where a fixed concentration of potentiator was added chronically along with the corrector compounds. This chronic treatment with the potentiator helped eliminate any interaction that might happen with CFTR modulators (correctors and potentiators) and thereby determined the true efficacy of the modulator combinations reflective of clinical relevance.
The assay uses a Transepithelial Current Clamp (TECC) (Vu, C B et al., 2017; J Med Chem 60:458-473) instrument that can measure the functionality of the mutated channel by measuring the equivalent CFTR current (IEQ) generated by the polarized primary epithelial cells. We used a TECC-24 with a 24-channel electrode manifold allowing for the simultaneous measurement of the transepithelial voltage, VT, and transepithelial resistance, RT, under current clamp conditions, from 24 filters using a 24 well Costar filter plate. The design of the filters in the 24 well filter plates was exactly the same as the design of an individual Transwell filter used in the classical Ussing Chamber with a surface area of 0.33 cm^2. Each measured VT values were corrected for the electrode offset potential measured using buffer alone in a separate plate, and each measured RT values were then corrected for the combined solution series and empty filter resistances. The corrected VT and RT values were then used to calculate the equivalent current, IEQ using Ohm's law (IEQ=VT/RT). The area under the curve (AUC) for the time period between the forskolin peak IEQ response and at the time of bumetanide addition was also calculated using a one-third trapezoid method, in addition to calculating the IEQ. The assay was run in a 24-well format and all 24-wells were measured at the same time point giving a higher throughput for this assay. […]

A further assay deals with T2, F508delCFTR (Homo sapiens, UniProt P13569, DEL508-508).
T2 construct: expressed in transfected cells; host or cells: CFBE41o- human lung-derived epithelial cell line, doxycycline-inducible expression
Nature of the assay: Cell Surface Expression-Horse Radish Peroxidase (CSE-HRP) assay in CFBE41o-F508delCFTR-HRP cells. The format is cell-based. To be noted: for EC50: CFBE41o-F508delCFTR-HRP cells, 18-24 hours at 33° C., luminescence; for Maximum % activity (without co-corrector) / Maximum % activity (with co-corrector): normalized to on-plate positive control corrector (2 μM). On the procedure: A cellular assay for measuring the F508delCFTR cell surface expression after correction with test compounds either without or with a co-corrector (2 μM of 3-[(2R,4R)-4-({[1-(2,2-difluoro-1,3-benzodioxol-5-yl)cyclopropyl]carbonyl}amino)-7-methoxy-3,4-dihydro-2H-chromen-2-yl]benzoic acid), was developed in human lung derived epithelial cell line (CFBE4lo-) (Veit G et al, (2012) Mol Biol Cell. 23(21): 4188-4202). The development was achieved by expressing the F508delCFTR mutation along with a horseradish peroxidase (HRP) in the fourth exofacial loop, and then measuring the HRP activity using luminescence readout from these cells, CFBE4lo-F508delCFTR-HRP, that were incubated overnight with the test corrector compounds, either without or with the co-corrector. For this primary assay, the CFBE4lo-F508delCFTR-HRP cells were plated in 384-well plates (Greiner Bio-one; Cat 781080) at 4,000 cells/well along with 0.5 μg/mL doxycycline to induce the F508delCFTR-RP expression and further incubated at 37° C., 5% CO2 for 68-72 hours. The test compounds were then added either without or with a co-corrector at the required concentrations and further incubated for 18-24 hours at 33° C. The highest concentration tested was 20 μM or 30 μM (GI-1 to GIII-36) with an 8-point concentration response curve using a 3-fold dilution in both the test compound without or with the co-corrector. Three replicate plates were run to determine one EC50. All plates contained negative controls (dimethyl sulfoxide, DMSO) and positive control (2 μM or 3 μM (GI-1 to GIII-36) of 3-[(2R,4R)-4-({[1-(2,2-difluoro-1,3-benzodioxol-5-yl)cyclopropyl]carbonyl}amino)-7-methoxy-3,4-dihydro-2H-chromen-2-yl]benzoic acid) as well as on-plate concentration response of the positive control. Post incubation, the plates were washed 5× times with Dulbecco's phosphate buffered saline (DPBS), followed by the addition of the HRP substrate, luminol (50 μL), and measuring the HRP activity using luminescence readout on EnVision® Multilabel Plate Reader (Perkin Elmer; product number 2104-0010). The raw counts from the experiment were analyzed using Accelrys® Assay Explorer v3.3.
Z′ greater than 0.5 was used as passing quality control criteria for the plates. The Z′ is defined as:
1−[3*SDPositive Control+3*SDNegative Control/Absolute (MeanPositive Control−MeanNegative Control)]
The % activity measured at each of the 8 test concentrations of the test compound added either without or with a co-corrector (2 μM or 3 μM (GI-1 to GIII-36) of 3-[(2R,4R)-4-({[1-(2,2-difluoro-1,3-benzodioxol-5-yl)cyclopropyl]carbonyl}amino)-7-methoxy-3,4-dihydro-2H-chromen-2-yl]benzoic acid) was normalized to the on-plate positive control using the following formulae:
% activity (Test compound without co-corrector)=[(test compound without co-corrector response−DMSO response)/(positive control response−DMSO response)]*100
% activity (Test compound with co-corrector)=[(test compound with co-corrector response−DMSO response)/(positive control response−DMSO response)]*100
The maximum % activity achieved for the test compound either without or with a co-corrector at any tested concentration is presented in Table 3 along with the respective EC50's calculated using the following general sigmoidal curve with variable Hill slope equation (described as Model 42 in the Accelrys® Assay Explorer v3.3 software):
General sigmoidal curve with concentration, response, top, bottom, EC50 and Hill slope. This model describes a sigmoidal curve with an adjustable baseline, a. The equation can be used to fit curves where response is either increasing or decreasing with respect to the independent variable, “x”.

Where [1] appears, read: with co-corrector (2 μM), read-out: EC50 (with co-corrector).
[2] abbreviates: without co-corrector, read-out: EC50 (without co-corrector).

Like-named read-outs stand apart in the source and are kept apart here.

T1 sequence (P13569 with tags, fused parts or gaps DEL508-508): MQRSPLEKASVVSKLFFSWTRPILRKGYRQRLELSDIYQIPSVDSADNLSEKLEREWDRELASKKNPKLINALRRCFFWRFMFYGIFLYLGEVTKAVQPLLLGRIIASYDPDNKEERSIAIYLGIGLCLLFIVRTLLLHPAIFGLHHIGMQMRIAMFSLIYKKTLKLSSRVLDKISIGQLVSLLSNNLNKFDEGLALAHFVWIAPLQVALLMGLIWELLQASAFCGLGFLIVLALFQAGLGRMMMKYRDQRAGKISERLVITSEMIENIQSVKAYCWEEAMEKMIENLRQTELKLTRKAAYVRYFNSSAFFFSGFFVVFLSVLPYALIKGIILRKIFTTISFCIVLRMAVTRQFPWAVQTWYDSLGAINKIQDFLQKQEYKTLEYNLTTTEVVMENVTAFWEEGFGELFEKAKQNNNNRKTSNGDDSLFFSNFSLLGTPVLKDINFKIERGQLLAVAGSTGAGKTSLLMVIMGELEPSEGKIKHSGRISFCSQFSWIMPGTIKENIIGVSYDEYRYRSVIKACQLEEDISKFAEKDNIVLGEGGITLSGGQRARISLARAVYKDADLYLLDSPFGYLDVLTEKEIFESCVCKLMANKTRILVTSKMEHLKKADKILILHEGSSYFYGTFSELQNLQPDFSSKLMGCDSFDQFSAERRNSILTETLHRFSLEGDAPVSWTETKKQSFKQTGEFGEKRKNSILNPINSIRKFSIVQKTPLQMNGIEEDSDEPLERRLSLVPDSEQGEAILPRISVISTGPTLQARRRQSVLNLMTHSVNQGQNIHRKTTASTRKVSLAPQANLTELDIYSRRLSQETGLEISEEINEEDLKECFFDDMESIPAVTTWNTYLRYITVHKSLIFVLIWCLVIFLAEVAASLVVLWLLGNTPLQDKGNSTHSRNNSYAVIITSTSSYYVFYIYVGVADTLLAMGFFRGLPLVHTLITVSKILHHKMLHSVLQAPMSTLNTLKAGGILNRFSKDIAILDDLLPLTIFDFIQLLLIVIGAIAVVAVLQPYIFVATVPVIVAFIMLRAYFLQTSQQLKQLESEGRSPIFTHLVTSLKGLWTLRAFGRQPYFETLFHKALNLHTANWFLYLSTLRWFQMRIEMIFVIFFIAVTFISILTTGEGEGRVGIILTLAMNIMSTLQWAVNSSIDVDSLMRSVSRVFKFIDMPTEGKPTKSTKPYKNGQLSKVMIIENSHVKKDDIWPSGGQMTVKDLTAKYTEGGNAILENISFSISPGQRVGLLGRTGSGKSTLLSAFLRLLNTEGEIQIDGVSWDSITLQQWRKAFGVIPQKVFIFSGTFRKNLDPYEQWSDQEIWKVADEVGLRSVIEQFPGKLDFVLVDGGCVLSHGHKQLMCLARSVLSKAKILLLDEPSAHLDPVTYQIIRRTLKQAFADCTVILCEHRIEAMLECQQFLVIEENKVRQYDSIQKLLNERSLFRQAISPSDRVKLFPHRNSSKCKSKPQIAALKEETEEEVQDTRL
T2 sequence (P13569 with tags, fused parts or gaps DEL508-508): as above

As usually defined, the EC50 is the concentration needed to bring the measured effect to its halfway point. As for `COc1cncc([C@H]2C[C@@]2(C(=O)NS(=O)(=O)c2cccc3nc(C)ccc23)c2cc(C)ccc2OC)n1` (single isomer, unassigned) [Example 75], the “Emax (% Dual)” value on F508del/F508del CFTR worked out at 402 % Dual. Besides, the half-maximal effective concentration (EC50) on F508del/F508del CFTR stood at 0.0362 µM; at F508delCFTR (setting [1]), 0.635 µM; at F508delCFTR (setting [2]), 1.65 µM. In addition, the “Maximum % activity (without co-corrector)” value on F508delCFTR (without co-corrector) is 939%.
For `COc1ccc(C)cc1[C@]1(C(=O)NS(=O)(=O)c2cccc3nc(C)ccc23)C[C@@H]1c1ccccc1` (single isomer, unassigned) [Example 3], the “Emax (% Dual)” value on F508del/F508del CFTR is given as 360 % Dual. The EC50 at F508del/F508del CFTR worked out at 0.000992 µM; at F508delCFTR (setting [1]), 0.994 µM; on F508delCFTR (setting [2]), 2.45 µM.
As for `CCOc1cnc([C@@H]2C[C@]2(C(=O)NS(=O)(=O)c2cccc3nc(C)ccc23)c2cc(C)ccc2OC)cn1` (single isomer, unassigned) [Example 65], the “Emax (% Dual)” value on F508del/F508del CFTR came out at 208 % Dual. The concentration for a half-maximal effect (EC50) on F508del/F508del CFTR is 0.0193 µM; at F508delCFTR (setting [1]), 0.586 µM; on F508delCFTR (setting [2]), 1.34 µM. Moreover, the “Maximum % activity (with co-corrector)” value at F508delCFTR (with co-corrector (2 μM)) stood at 828%. On F508delCFTR (without co-corrector), the “Maximum % activity (without co-corrector)” value is recorded as 394%.
For `COc1ccc(C)cc1[C@]1(C(=O)NS(=O)(=O)c2cccc3nc(C)ccc23)C[C@@H]1c1cccc(N(C)C)n1` [Example 60, (1S,2S)-2-[6-(dimethylamino)pyridin-2-yl]-1-(2-methoxy-5-methylphenyl)-N-(2-methylquinoline-5-sulfonyl)cyclopropane-1-carboxamide], the “Emax (% Dual)” value on F508del/F508del CFTR stood at 413 % Dual. Besides, the figures for the EC50 on F508del/F508del CFTR, at F508delCFTR (setting [1]) and on F508delCFTR (setting [2]) were 0.0067 µM, 1.03 µM and 2.14 µM, respectively.
On to `COc1ccc(C)cc1[C@]1(C(=O)NS(=O)(=O)c2cccc3nc(C)ccc23)C[C@@H]1c1cnc(OC)c(OC)n1` [Example 80, (1S,2S)-2-(5,6-dimethoxypyrazin-2-yl)-1-(2-methoxy-5-methylphenyl)-N-(2-methylquinoline-5-sulfonyl)cyclopropane-1-carboxamide], for which the “Emax (% Dual)” value at F508del/F508del CFTR came out at 275 % Dual. For the same compound, the EC50 is 0.0158 µM on F508del/F508del CFTR, 0.461 µM on F508delCFTR (setting [1]) and 1.32 µM on F508delCFTR (setting [2]). Further, the “Maximum % activity (without co-corrector)” value at F508delCFTR (without co-corrector) was determined as 925%.
In the case of `CCOc1nc(C2C[C@@]2(C(=O)NS(=O)(=O)c2cccc3nc(C)ccc23)c2cc(C)ccc2OC)ccc1F` (stereo in doubt) [Example 106, (1S,2S)-2-(6-ethoxy-5-fluoropyridin-2-yl)-1-(2-methoxy-5-methylphenyl)-N-(2-methylquinoline-5-sulfonyl)cyclopropane-1-carboxamide], at F508del/F508del CFTR, the “Emax (% Dual)” value worked out at 188 % Dual and the EC50 came out at 0.0116 µM. Moreover, the EC50 on F508delCFTR (setting [1]) is 0.222 µM.
In the case of `CCOc1ncccc1[C@@H]1C[C@]1(C(=O)NS(=O)(=O)c1cccc2nc(C)ccc12)c1cc(C)ccc1OC` (single isomer, unassigned) [Example 73], the “Emax (% Dual)” value on F508del/F508del CFTR is on record as 230 % Dual. The EC50 at F508del/F508del CFTR was determined as 0.0306 µM; at F508delCFTR (setting [1]), 0.785 µM; on F508delCFTR (setting [2]), 1.44 µM. Besides, the “Maximum % activity (without co-corrector)” value on F508delCFTR (without co-corrector) is 539%.
For the compound `COc1cnc([C@@H]2C[C@]2(C(=O)NS(=O)(=O)c2cccc3nc(C)ccc23)c2cc(C)ccc2OC)cn1` (single isomer, unassigned) [Example 47], the “Emax (% Dual)” value at F508del/F508del CFTR is 247 % Dual. Moreover, the figures for the half-maximal effective concentration (EC50) on F508del/F508del CFTR, at F508delCFTR (setting [1]) and on F508delCFTR (setting [2]) were 0.0852 µM, 1.28 µM and 2.21 µM, respectively. Besides, the “Maximum % activity (with co-corrector)” value on F508delCFTR (with co-corrector (2 μM)) was found to be 775%. For the same compound, at F508delCFTR (without co-corrector), the “Maximum % activity (without co-corrector)” value is 322%.
In the case of `COc1ccc([C@@H]2C[C@]2(C(=O)NS(=O)(=O)c2cccc3nc(C)ccc23)c2cc(C)ccc2OC)cc1` (single isomer, unassigned) [Example 17], at F508del/F508del CFTR, the “Emax (% Dual)” value is recorded as 296 % Dual and the concentration for a half-maximal effect (EC50) turned out to be 0.00066 µM. Also, the EC50 at F508delCFTR (setting [2]) amounted to 2.38 µM.

(Values after patent US20240043386A1, “Modulators of the Cystic Fibrosis Transmembrane Conductance Regulator Protein and Methods of Use” (AbbVie Global Enterprises Ltd., priority 2021, published 2024).)
